In article PMC7730549, “Design, Synthesis and Evaluation of New Bioactive Oxadiazole Derivatives as Anticancer Agents Targeting Bcl-2” (International Journal of Molecular Sciences, 2020):

Tests used:
[1] = test system: MDA-MB-231 (metastatic breast) cells; test: MTT anti-proliferative assay, MDA-MB-231; format: cell-based, human; conditions: Bcl-2 expressing, mean of three independent experiments ±SEM
Experimental: (§1) Evaluation of anti-proliferative activity for the new 2-(1H-indol-3-yl)-5-substituted-1,3,4-oxadiazoles (4a–m) was carried out in Bcl-2-expressing human metastatic breast (MDA-MB-231) and cervical (HeLa) cancer cell lines, using the MTT endpoint assay, following 72 h incubation of test compound, according to previously established protocols. Further analysis within the non-adherent leukemic cell lines KG1a (acute myelogenous leukemia, Bcl-2 +ve) and Jurkat (T-cell leukemia, Bcl-2 −ve,) was carried out by using the CellTiter-Blue® assay according to published precedent.
(§2) Human breast cancer (MDA-MB-231) and cervical cancer (HeLa) cells, obtained from the ATCC (Manassas, VA, USA), were cultured and maintained as previously described. For each experiment, 3000 cells in 0.2 mL of medium were seeded into each well of a clear flat-bottomed 96-well plate and allowed to adhere for 24 h. The cells were then incubated with the test compound (from 10 mM stock in DMSO), over a 10-fold dilution series, with concentrations ranging from 0.00001 to 100 μM and each diluent being performed in triplicate. Cells were incubated with the test compound for 72 h, followed by treatment with 3-[4,5-dimethylthiazol-2-yl]-2,5-diphenyl tetrazolium bromide (MTT) solution and reading of absorbance (automated microplate) according to our previous protocol. Mean IC50 values were obtained by using GraphPad Prism 5 software (San Diego, CA, USA). For each concentration, three independent repeat experiments were carried out to establish reproducibility.

[2] = test system: Jurkat (T-cell leukemia) cells; test: CellTiter-Blue cell viability assay, Jurkat; format: cell-based, human; conditions: for IC50: CellTitre-Blue assay, 24 h incubation, Bcl-2 −ve, mean of three independent experiments ±SEM
Experimental: as §1
(§3) Human acute myeloid leukemia KG1a and acute T-cell lymphocytic Jurkat cells were cultured and maintained as previously described. For each experiment 15,000 cells in 0.1 mL of medium were seeded into each well of a solid-black fluorescence 96-well plate and incubated for 24 h. The cells were then incubated with test compound (from 10 mM stock in DMSO), over a 10-fold dilution series, with concentrations ranging from 0.00001 to 100 μM and each diluent being performed in triplicate. Cells were incubated with test compound for 24 h, followed by treatment with CellTiter-Blue® solution and reading of fluorescence according to our previous protocol. Mean IC50 values were obtained by using GraphPad Prism 5 software (San Diego, CA, USA). For each concentration, three independent repeat experiments were carried out, to establish reproducibility.

HeLa (cervical) cells = test: MTT anti-proliferative assay, HeLa; format: cell-based, human; conditions: 72 h incubation, Bcl-2 expressing, mean of three independent experiments ±SEM
Experimental: as §1, §2

KG1a (AML) cells = test: CellTiter-Blue cell viability assay, KG1a; format: cell-based, human; conditions: CellTitre-Blue assay, 24 h incubation, Bcl-2 +ve, mean of three independent experiments ±SEM
Experimental: as §1, §3

His-tagged Bcl-2 protein = His-tagged Bcl-2 protein (Homo sapiens, UniProt P10415); test: Competitive Bcl-2 ELISA binding assay (Bim peptide / His-tagged Bcl-2); conditions: for IC50: competition with biotinylated Bim peptide for His-tagged Bcl-2, mean ± SEM of three independent experiments; for Bcl-2 binding activity in the ELISA assay: competitive ELISA, Bim peptide
Experimental: Compounds were evaluated according to their ability to compete with the pro-apoptotic BH3 domain Bim peptide for binding to His-tagged Bcl-2 protein, with a readout from anti-His secondary antibody conjugated to HRP (horseradish peroxidase) enzyme that produces a colorimetric readout in the presence of o-phenylenediamine (competitive ELISA assay).
The ELISA assay to determine the ability of test compounds (10-fold dilution series) to compete with the interaction between biotinylated Bim peptide and His-tagged Bcl-2 protein was carried out according to our previously published protocol. The addition of anti-His antibody containing horseradish peroxidase enzyme, followed by the addition of o-phenylenediamine and hydrogen peroxide, allowed for the determination of optical density, using a plate reader (450 nm). The experiments were carried out on three separate occasions, including both negative and positive controls. A plot of log μM concentration for each inhibitor against the percentage reduction in affinity for the Bim peptide was created, using non-linear regression curve analysis (GraphPad Prism 5, San Diego, CA, USA) and the software used to generate the IC50 value for the Bcl-2 inhibitor.

[3] = test system: Bcl-2 expressing cell lines (MDA-MB-231, HeLa and KG1a); test: Anti-proliferative activity across Bcl-2 expressing cell lines (MDA-MB-231, HeLa, KG1a); format: cell-based; conditions: Homo sapiens; MDA-MB-231, HeLa and KG1a taken together; read-out: IC50 values against Bcl-2 expressing cell lines
Experimental: as §1
Human breast cancer (MDA-MB-231) and cervical cancer (HeLa) cells, obtained from the ATCC (Manassas, VA, USA), were cultured and maintained as previously described. […] Cells were incubated with the test compound for 72 h, followed by treatment with 3-[4,5-dimethylthiazol-2-yl]-2,5-diphenyl tetrazolium bromide (MTT) solution and reading of absorbance (automated microplate) according to our previous protocol. […]
Human acute myeloid leukemia KG1a and acute T-cell lymphocytic Jurkat cells were cultured and maintained as previously described. For each experiment 15,000 cells in 0.1 mL of medium were seeded into each well of a solid-black fluorescence 96-well plate and incubated for 24 h. […]

[4] = Homo sapiens, MDA-MB-231, 72 h incubation

Sequence of His-tagged Bcl-2 protein (P10415 whole entry, the tested form may be a part): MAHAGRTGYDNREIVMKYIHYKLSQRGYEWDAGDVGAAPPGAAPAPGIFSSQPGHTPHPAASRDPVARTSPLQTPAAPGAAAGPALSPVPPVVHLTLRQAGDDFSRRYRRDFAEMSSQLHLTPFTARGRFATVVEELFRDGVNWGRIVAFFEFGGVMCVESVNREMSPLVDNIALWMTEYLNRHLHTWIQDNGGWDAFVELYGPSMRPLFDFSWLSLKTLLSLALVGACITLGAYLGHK

c1ccc(Cc2nnc(-c3c[nH]c4ccccc34)o2)cc1 [Compound 4f, 2-(1H-Indol-3-yl)-5-benzyl-1,3,4-oxadiazole]
IC50 [1, 4]: > 100000 nM
melting point: 187 to 189 °C
IC50 ([2]; Homo sapiens, Jurkat): > 100000 nM
IC50 (HeLa (cervical) cells; Homo sapiens, HeLa): > 100000 nM
IC50 (KG1a (AML) cells; Homo sapiens, KG-1a): > 100000 nM

COc1ccc(-c2nnc(-c3c[nH]c4ccccc34)o2)cc1 [Compound 4h, 2-(1H-Indol-3-yl)-5-(4-methoxyphenyl)-1,3,4-oxadiazole]
IC50 [1, 4]: 6020 ± 120 nM
melting point: 210 to 212 °C
IC50 ([2]; Homo sapiens, Jurkat): 60590 ± 120 nM
IC50 (HeLa (cervical) cells; Homo sapiens, HeLa): 920 ± 80 nM
IC50 (KG1a (AML) cells; Homo sapiens, KG-1a): 2210 ± 100 nM

c1ccc2c(-c3nnc(-c4ccc(N5CCCCC5)nc4)o3)c[nH]c2c1 [Compound 4l, 2-(1H-Indol-3-yl)-5-(6-(piperidin-1-yl)-pyridin-3-yl)-1,3,4-oxadiazole]
IC50 [1, 4]: 2970 ± 60 nM
melting point: 240 to 242 °C
IC50 ([2]; Homo sapiens, Jurkat): 61400 ± 1400 nM
IC50 (HeLa (cervical) cells; Homo sapiens, HeLa): 1520 ± 30 nM
IC50 (KG1a (AML) cells; Homo sapiens, KG-1a): 4500 ± 310 nM

O=[N+]([O-])c1ccc(-c2nnc(-c3c[nH]c4ccccc34)o2)cc1 [Compound 4g, 2-(1H-Indol-3-yl)-5-(4-nitrophenyl)-1,3,4-oxadiazole]
IC50 [1, 4]: 6950 ± 500 nM
melting point: 215 to 217 °C
IC50 ([2]; Homo sapiens, Jurkat): > 100000 nM
IC50 (HeLa (cervical) cells; Homo sapiens, HeLa): 1600 ± 120 nM
IC50 (KG1a (AML) cells; Homo sapiens, KG-1a): > 100000 nM

Cc1ccc(OCc2nnc(-c3c[nH]c4ccccc34)o2)cc1 [Compound 4b, 2-(1H-Indol-3-yl)-5-(4-methylphenoxymethyl)-1,3,4-oxadiazole]
IC50 (His-tagged Bcl-2 protein): > 100000 nM
Bcl-2 binding activity in the ELISA assay (His-tagged Bcl-2 protein): inactive
IC50 [1, 4]: 31500 ± 4800 nM
melting point: 201 to 203 °C
IC50 ([2]; Homo sapiens, Jurkat): > 100000 nM
IC50 (HeLa (cervical) cells; Homo sapiens, HeLa): 13300 ± 320 nM
IC50 (KG1a (AML) cells; Homo sapiens, KG-1a): > 100000 nM

COc1cc(-c2nnc(-c3c[nH]c4ccccc34)o2)cc(OC)c1OC [Compound 4i, 2-(1H-Indol-3-yl)-5-(3,4,5-trimethoxyphenyl)-1,3,4-oxadiazole]
IC50 (His-tagged Bcl-2 protein): 21000 ± 1090 nM
Bcl-2 binding activity in the ELISA assay (His-tagged Bcl-2 protein): only moderate Bcl-2 binding activity
IC50 [1, 4]: 1190 ± 100 nM
melting point: 221 to 222 °C
IC50 ([2]; Homo sapiens, Jurkat): 12200 ± 1130 nM
IC50 (HeLa (cervical) cells; Homo sapiens, HeLa): 1220 ± 900 nM
IC50 (KG1a (AML) cells; Homo sapiens, KG-1a): 975 ± 20 nM

FC(F)(F)c1ccc(-c2nnc(-c3c[nH]c4ccccc34)o2)cc1 [Compound 4j, 2-(1H-Indol-3-yl)-5-(4-trifluoromethylphenyl)-1,3,4-oxadiazole]
binding potency relative to positive control gossypol (His-tagged Bcl-2 protein; Bcl-2 ELISA binding affinity assay): two-fold more potent
IC50 (His-tagged Bcl-2 protein): 330 ± 50 nM
IC50 [3]: 520 to 880 nM
IC50 [1, 4]: 520 ± 150 nM
melting point: 224 to 226 °C
IC50 ([2]; Homo sapiens, Jurkat): > 100000 nM
inhibitory effect in the Bcl-2 negative cell line ([2]; Jurkat, Bcl-2 negative): no inhibitory effects
IC50 (HeLa (cervical) cells; Homo sapiens, HeLa): 880 ± 160 nM
IC50 (KG1a (AML) cells; Homo sapiens, KG-1a): 730 ± 90 nM

c1ccc(OCc2nnc(-c3c[nH]c4ccccc34)o2)cc1 [Compound 4d, 2-(1H-Indol-3-yl)-5-(phenoxymethyl)-1,3,4-oxadiazole]
IC50 (His-tagged Bcl-2 protein): 1410 ± 10 nM
IC50 [1, 4]: 1630 ± 80 nM
melting point: 195 to 197 °C
IC50 ([2]; Homo sapiens, Jurkat): > 100000 nM
IC50 (HeLa (cervical) cells; Homo sapiens, HeLa): 570 ± 40 nM
IC50 (KG1a (AML) cells; Homo sapiens, KG-1a): 2560 ± 70 nM

COc1cccc(Cc2nnc(-c3c[nH]c4ccccc34)o2)c1 [Compound 4e, 2-(1H-Indol-3-yl)-5-(3-methoxybenzyl)-1,3,4-oxadiazole]
IC50 (His-tagged Bcl-2 protein): 2720 ± 200 nM
IC50 [1, 4]: 6280 ± 200 nM
melting point: 208 to 210 °C
IC50 ([2]; Homo sapiens, Jurkat): > 100000 nM
IC50 (HeLa (cervical) cells; Homo sapiens, HeLa): 3140 ± 140 nM
IC50 (KG1a (AML) cells; Homo sapiens, KG-1a): 3660 ± 150 nM

2-(1H-Indol-3-yl)-5-(5-methoxy-1H-indol-2-yl)-1,3,4-oxadiazole [Compound 4m]
IC50 (His-tagged Bcl-2 protein): 840 ± 50 nM
IC50 ([1]; 72 h incubation): 1790 ± 70 nM
IC50 [2]: 57400 ± 580 nM
IC50 (HeLa (cervical) cells): 1190 ± 400 nM
IC50 (KG1a (AML) cells): 1870 ± 140 nM

Cc1ccc(-c2nnc(-c3c[nH]c4ccccc34)o2)cc1 [Compound 4k, 2-(1H-Indol-3-yl)-5-(4-methylphenyl)-1,3,4-oxadiazole]
IC50 (His-tagged Bcl-2 protein): 430 ± 50 nM
IC50 [1, 4]: 920 ± 190 nM
melting point: 198 to 200 °C
IC50 ([2]; Homo sapiens, Jurkat): > 100000 nM
IC50 (HeLa (cervical) cells; Homo sapiens, HeLa): 1280 ± 350 nM
IC50 (KG1a (AML) cells; Homo sapiens, KG-1a): 1470 ± 130 nM

Fc1ccc(OCc2nnc(-c3c[nH]c4ccccc34)o2)cc1 [Compound 4a, 2-(1H-Indol-3-yl)-5-(4-fluorophenoxymethyl)-1,3,4-oxadiazole]
IC50 [1, 4]: 36100 ± 3400 nM
melting point: 210 to 212 °C
IC50 ([2]; Homo sapiens, Jurkat): > 100000 nM
IC50 (HeLa (cervical) cells; Homo sapiens, HeLa): 12900 ± 1330 nM
IC50 (KG1a (AML) cells; Homo sapiens, KG-1a): > 100000 nM

CC(C)(C)c1ccc(OCc2nnc(-c3c[nH]c4ccccc34)o2)cc1 [Compound 4c, 2-(1H-Indol-3-yl)-5-(4-tert-butylphenoxymethyl)-1,3,4-oxadiazole]
IC50 (His-tagged Bcl-2 protein): 1170 ± 130 nM
IC50 [1, 4]: 3500 ± 160 nM
melting point: 218 to 220 °C
IC50 ([2]; Homo sapiens, Jurkat): > 100000 nM
IC50 (HeLa (cervical) cells; Homo sapiens, HeLa): 900 ± 30 nM
IC50 (KG1a (AML) cells; Homo sapiens, KG-1a): 3450 ± 800 nM
